US20190106460A1, “BINDING INHIBITORS OF THE BETA. TRANSDUCIN REPEAT-CONTAINING PROTEIN” (priority 2011, published 2019)
“Also recorded” adds a separate entry of the source. Non-standard residues stand in square brackets, D forms with d. Residues, ends and D or L forms follow the SMILES beside them. *: point of attachment. Benzenesulfonyl(4-OMe) = COc1ccc(S(=O)(=O)*)cc1; Arachidoyl = CCCCCCCCCCCCCCCCCCCC(=O)*; Phe(3-F) = N[C@@H](Cc1cccc(F)c1)C(=O)O; Stearoyl = CCCCCCCCCCCCCCCCCC(=O)*; 2Naphthoyl = O=C(c1ccc2ccccc2c1)*; Brosyl = O=S(=O)(c1ccc(Br)cc1)*; Tos = Cc1ccc(S(=O)(=O)*)cc1; Ahx = NCCCCCC(=O)O

Experiments:
Format in all cases: cell-based
PDCD4 in MCF7 cells [1] = test: In-cell western assay for PDCD4 accumulation; details: for cell based activity: general statement, different delivery vehicles; for accumulation of PDCD4, in cell western: MCF7, treatment with cell permeable compound
Protocol: In-Cell Western Assay for PDCD4 Accumulation.
To measure this an in-cell western assay was used and the peptidomimetics were delivered to the cells by nucleofection.
MCF7 cells were grown in 10 cm dishes in 10 ml DMEM+10% FBS and 1% Pen/Strep at 37° C./5% CO2. On the day of nucleofection, the dish was washed with 90% confluent MCF7 cells with 5 ml PBS, then 3 ml of Trypsin/EDTA was added and incubated at 37° C./5% CO2 for approximately 5 mins until the cells detached from the plastic. 7 ml of normal growth media was added and the number of cells present was counted using a haemocytometer.
The cells were centrifuged cells at 90 g for 10 mins at RT and the supernatant was removed. 100 μl of Nucleofection Buffer V+ Supplement was added (Lonza Biologics Cat no VCA-1003) per 8×10^5 cells, and the cells were added to peptidomimetics dissolved in <3% DMSO.
The cell/peptidomimetic mix was added to cuvettes supplied for the nucleofector and the sample was nucleofected using the recommended MCF7 programme for high cell viability (i.e. E-014). 500 μl of TPA (12-O-tetradecanoylphorbol-13-acetate)-supplemented growth media (i.e. DMEM/10% FBS/1% Pen-Strep/10 nM TPA) was added to the cuvette and 100 μl of this solution was transferred to a well of a 96 well plate and incubated at 37° C./5% CO2 for 8 hours.
The celled were fixed by removing the growth media, adding 3.7% Formaldehyde in PBS and incubating at RT for 20 mins. The plate was washed three times in PBS. And the cells were permeabilised by washing 5× for 5 mins each in PBS+0.1% Triton X-100.
The cells were blocked by adding 3% BSA in PBS-Tween to the cells and incubating at RT for 1.5 hours. An anti-PDCD4 antibody (Abcam cat no: ab80590) was added at a concentration of 1:1000 in 3% BSA in PBS-T (50 ul/well) and incubated at RT for 2.5 hours. The cells were washed 5× for 5 mins each with PBS-T before the secondary antibody (LiCor Biosciences Donkey Anti-Rabbit IRDye 800CW cat no 926-32213) was added at a concentration of 1:1000, along with the DNA stain DRAQ5 at a concentration of 1:10000, in 3% BSA in PBS-T (50 ul/well) and incubated at RT for 1 hour, protected from light.
The cells were washed cells 5× for 5 mins each with PBS-T and all the liquid was removed from the wells before the plate was read on the LiCor Biosciences Odyssey at 700 nm and 800 nm. The reading was normalised in the 800 nm channel to that in the 700 nm channel. The data are shown in FIG. 12, where DMSO was used as a negative control and 20 μM MG132 was used as a positive control. The data is presented as percentage activity with DMSO=0% and […]=100% activity. Error bars represent standard deviation from 3 replicates.
The compounds shown in FIGS. 14A-14B were synthesised to improve cell permeability. […] FIG. 16 compares the round II compounds (shown in FIGS. 14A-14B) with UBP036 in this assay. […] Inhibition of βTrCP, which is responsible for the degradation of both PDCD4 and β-catenin, causes a concomitant stabilisation and accumulation of levels of these proteins which can be measured by in cell western assay.

PDCD4 in LNCaP cells = test: Traditional western blot for PDCD4, LNCaP
Source text: […]

PDCD4 in MCF7 cells [2] = test: Traditional western blot for PDCD4, MCF7
Source text: […]

PNT-1 cell line = test: xCELLigence cell growth, non-malignant PNT-1
Protocol: (§1) xCELLigence Method • Before starting the experiment add 50 μL of medium (RPMI 1640, 10% fetal bovine serum, 100 units/mL penicillin, 100 ug/mL streptomycin, and 2 mmol/L glutamine, all from GIBCO) to each well of 96 well E-plate (Roche) and place the plate in the xCELLigence platform to measure the background. • LNCaP/PNT-1 cells are seeded (LNCaPs 80000 cells/well; PNT1 3000 cells/well) in the plate in complete medium and equilibrated for 60 mins at RT before returning to the xCELLigence platform and incubating at 37° C./5% CO2. • 24 hrs after seeding, remove 100 μL of medium was removed from each well and cells were treated with compounds or DMSO diluted in 100 μL of OptiMEM (GIBCO). • Replace the plate in the xCELLigence platform • Cells growth can then be monitored in real-time by the cell index profile on the xCELLigence readout screen • Cell growth can be expressed as normalized cell index and doubling time/slope calculated using the RTCA software.
The susceptibility of cancer cell lines versus non-cancer cell lines following treatment with the compounds was also investigated.

LNCaP (prostate cancer) = test: xCELLigence cell viability / proliferation, LNCaP
Protocol: Example 9—Cell Based Activity of Cell Permeable Compounds on the xCELLigence Platform
The effects of the compounds shown in FIGS. 14A-14B were tested on cancer cell lines MCF7 (breast cancer) and LNCaP (prostate cancer) using the xCELLigence platform (http://www.roche-applied-science.com/sis/xcelligence/ezhome.html). This method of measuring cell viability via measuring cell index is known in the art.
Different doses of the compounds were tested on MCF7 cells to see if there would be an effect on their cell viability.
The control compound was compared to its partner active compound (UBP037).
as §1

Row | SMILES | cell based activity (PDCD4 in MCF7 cells [1]) | PDCD4 accumulation, traditional western blot (PDCD4 in LNCaP cells) | PDCD4 accumulation, traditional western blot (PDCD4 in MCF7 cells [2]) | accumulation of PDCD4, in cell western (PDCD4 in MCF7 cells [1]) | cell growth, xCELLigence (PNT-1 cell line) | cell growth / proliferation, xCELLigence (LNCaP (prostate cancer))
1 | COc1ccc(S(=O)(=O)N[C@H](CC(=O)O)C(=O)N[C@@H](CCC(=O)O)C(=O)NCC(=O)N[C@@H](Cc2cccc(F)c2)C(=O)N[C@@H](Cc2c[nH]c3ccccc23)C(=O)N[C@@H](CCC(=O)O)C(N)=O)cc1 [UBP022, 4-(MeO)-PhSO2-dEGF(3F)WE-NH2] ({Benzenesulfonyl(4-OMe)}-[dD]EG[Phe(3-F)]WE-NH2) | display cell based activity | – | – | – | – | –
2 | CCCCCCCCCCCCCCCCCCCC(=O)NCCCC[C@H](NC(=O)CCCCCNC(=O)[C@H](CCC(=O)O)NC(=O)[C@H](Cc1c[nH]c2ccccc12)NC(=O)[C@H](Cc1cccc(F)c1)NC(=O)CNC(=O)[C@H](CCC(=O)O)NC(=O)[C@@H](CC(=O)O)NS(=O)(=O)c1ccc(OC)cc1)C(N)=O [UBP038, 4-(MeO)PhSO2-dEGF(3F)WE-Ahx-K(NHCOC19H39)-NH2] ({Benzenesulfonyl(4-OMe)}-[dD]EG[Phe(3-F)]WE[Ahx]K(Arachidoyl)-NH2) | – | exhibited cellular activity | exhibited cellular activity | inconclusive results | far less effect | inhibit the growth
3 | NC(=O)[C@H](CCCCNC(=O)c1ccc2ccccc2c1)NC(=O)CCCCCNC(=O)[C@H](CCC(=O)O)NC(=O)[C@H](Cc1c[nH]c2ccccc12)NC(=O)[C@H](Cc1cccc(F)c1)NC(=O)CNC(=O)[C@H](CCC(=O)O)NC(=O)[C@@H](CC(=O)O)NS(=O)(=O)c1ccc(Br)cc1 [UBP090, 4-(Br)PhSO2-dEGF(3F)WE-Ahx-K(NHCO(2-Naphth))-NH2] (Brosyl-[dD]EG[Phe(3-F)]WE[Ahx]K(2Naphthoyl)-NH2) | display cell based activity | – | – | – | – | –
4 | CCCCCCCCCCCCCCCCCC(=O)NCCCC[C@H](NC(=O)CCCCCNC(=O)[C@H](CCC(=O)O)NC(=O)[C@H](Cc1c[nH]c2ccccc12)NC(=O)[C@H](Cc1cccc(F)c1)NC(=O)CNC(=O)[C@H](CCC(=O)O)NC(=O)[C@@H](CC(=O)O)NS(=O)(=O)c1ccc(OC)cc1)C(N)=O [UBP037, 4-(MeO)PhSO2-dEGF(3F)WE-Ahx-K(NHCOC17H35)-NH2] ({Benzenesulfonyl(4-OMe)}-[dD]EG[Phe(3-F)]WE[Ahx]K(Stearoyl)-NH2) | – | exhibited cellular activity | exhibited cellular activity | inconclusive results | far less effect | inhibit the growth; also recorded: severely restricts the proliferation
5 | CCCCCCCCCCCCCCCCCC(=O)NCCCC[C@H](NC(=O)CCCCCNC(=O)[C@H](Cc1c[nH]c2ccccc12)NC(=O)CNC(=O)[C@H](CCC(=O)O)NC(=O)[C@H](Cc1ccccc1)NC(=O)[C@@H](CC(=O)O)NC(=O)[C@H](CCC(=O)O)NS(=O)(=O)c1ccc(C)cc1)C(N)=O [Ts-EdFEGW-Ahx-K(Stearic)-NH2, reference compound] (Tos-E[dD]FEGW[Ahx]K(Stearoyl)-NH2) | – | – | – | – | – | levels of cell proliferation similar to that seen with DMSO
